Values quoted from earlier work in patent US12290493B2 (Advanced Respiratory Technologies, Inc., priority 2017, dated 2025).

Assays:
[1] = system: beta adrenergic receptors
[2] = fraction of the l-epinephrine effect

Structure (SMILES) | beta adrenergic activity [1] | pressor effect relative to that of l-epinephrine [2]
CNCC(=O)c1ccc(O)c(O)c1 [adrenalone] | little if any beta adrenergic activity | 
CNC[C@H](O)c1ccc(O)c(O)c1 [d-epinephrine] |  | about one-fifteenth
